Test results: patent US8895744B2, “Alfa-carboline inhibitors of NPM-ALK, RET, and Bcr-Abl” (Universita' Degli Studi di Milano-Bicocca, priority 2008, dated 2014)
Read-outs that look alike come from different tables or passages of the source.

Assays:
[1] = test system: parent untransformed BaF3 cells; assay: Tritiated thymidine uptake cell proliferation assay, parental BaF3 (control); format: cell-based; details: Mus musculus, 3[H]-thymidine uptake, 72 h, medium with IL-3, read-out: BaF parental IC50
How it was run: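 Control lines were parental BaF3 in IL-3-supplemented medium and ALK-, Abl- or RET-negative U937, seeded at 10 000 cells/well with serial inhibitor dilutions for 72 h at 37 °C. ³H-thymidine (1 μCi/well) was added for the final 16 h; IC50 (μM) is the concentration halving uptake versus DMSO.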

[2] = biological target: T1, BaF3 cells transformed with the oncogenic fusion protein NPM/ALK (Homo sapiens, UniProt Q9UM73); assay: Tritiated thymidine uptake cell proliferation assay, BaF3 NPM/ALK; format: cell-based; details: 3[H]-thymidine uptake, 72 h; read-out: BaF NPM/ALK IC50
T1 construct: fused on or other part: P06748 (Nucleophosmin)
T1 sequence (Q9UM73 whole entry, change not shown, the tested form may be a part): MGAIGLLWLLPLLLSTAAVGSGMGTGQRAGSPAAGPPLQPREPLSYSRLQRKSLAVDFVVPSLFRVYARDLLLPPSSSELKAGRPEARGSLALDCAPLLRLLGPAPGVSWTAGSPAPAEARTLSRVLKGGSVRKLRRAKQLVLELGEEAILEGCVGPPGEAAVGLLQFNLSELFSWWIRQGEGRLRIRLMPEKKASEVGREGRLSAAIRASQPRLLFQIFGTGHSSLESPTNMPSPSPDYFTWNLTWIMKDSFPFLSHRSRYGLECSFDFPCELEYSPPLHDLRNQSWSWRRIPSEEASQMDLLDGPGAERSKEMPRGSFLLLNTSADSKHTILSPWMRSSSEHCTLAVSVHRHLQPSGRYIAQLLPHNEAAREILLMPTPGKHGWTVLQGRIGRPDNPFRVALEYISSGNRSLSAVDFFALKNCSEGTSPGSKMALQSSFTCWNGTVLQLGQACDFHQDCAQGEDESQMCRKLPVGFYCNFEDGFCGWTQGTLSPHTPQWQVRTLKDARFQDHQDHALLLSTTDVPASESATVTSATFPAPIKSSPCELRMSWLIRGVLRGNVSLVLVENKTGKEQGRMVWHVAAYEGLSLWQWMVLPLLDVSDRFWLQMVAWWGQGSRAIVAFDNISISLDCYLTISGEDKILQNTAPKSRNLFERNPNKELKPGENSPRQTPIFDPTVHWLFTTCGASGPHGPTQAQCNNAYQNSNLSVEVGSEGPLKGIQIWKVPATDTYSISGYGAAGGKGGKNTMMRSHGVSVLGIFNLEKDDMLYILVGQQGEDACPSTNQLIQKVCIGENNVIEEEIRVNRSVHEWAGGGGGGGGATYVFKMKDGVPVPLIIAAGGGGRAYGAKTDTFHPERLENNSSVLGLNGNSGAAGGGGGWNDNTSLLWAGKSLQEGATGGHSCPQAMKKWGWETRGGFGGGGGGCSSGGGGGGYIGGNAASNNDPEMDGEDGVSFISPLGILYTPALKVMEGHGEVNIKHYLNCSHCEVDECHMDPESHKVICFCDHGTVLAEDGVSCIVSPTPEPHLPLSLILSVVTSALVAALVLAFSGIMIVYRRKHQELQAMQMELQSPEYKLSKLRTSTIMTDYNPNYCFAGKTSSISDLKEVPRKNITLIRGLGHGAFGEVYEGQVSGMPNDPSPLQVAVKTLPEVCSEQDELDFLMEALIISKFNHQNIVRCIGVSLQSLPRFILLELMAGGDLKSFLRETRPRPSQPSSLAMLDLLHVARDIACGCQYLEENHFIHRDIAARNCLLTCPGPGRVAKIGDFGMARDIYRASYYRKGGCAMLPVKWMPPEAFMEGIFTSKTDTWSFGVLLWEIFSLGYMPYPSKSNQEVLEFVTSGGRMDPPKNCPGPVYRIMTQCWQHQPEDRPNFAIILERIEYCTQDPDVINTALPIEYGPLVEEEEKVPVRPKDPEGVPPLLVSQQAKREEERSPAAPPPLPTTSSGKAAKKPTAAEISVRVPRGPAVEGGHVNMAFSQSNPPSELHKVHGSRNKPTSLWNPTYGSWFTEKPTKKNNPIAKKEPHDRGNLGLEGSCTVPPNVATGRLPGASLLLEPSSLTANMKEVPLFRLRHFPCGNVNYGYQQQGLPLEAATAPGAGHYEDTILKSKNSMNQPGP
How it was run: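 Cells were seeded at 10 000/well with serial inhibitor dilutions or DMSO vehicle and incubated 72 h at 37 °C, with ^3[H]-thymidine (1 μCi/well) added for the final 16 h. Incorporation was read by β scintillation counting. IC50 (μM) is the concentration giving a 50% decrease in uptake versus controls.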

[3] = biological target: BaF3 cells transformed with the oncogenic fusion protein bcr-abl (Homo sapiens, UniProt P00519); assay: Tritiated thymidine uptake cell proliferation assay, BaF3 BCR/ABL; format: cell-based; details: 3[H]-thymidine uptake, 72 h; read-out: BaF BCR/ABL IC50
Procedure: Inhibition of the Proliferation of Bcr/Abl Positive Cells
(§1) Method: Tritiated Thymidine Uptake Cell Proliferation Assay
(§2) The following procedure was used with parent untransformed BaF3 cells, BaF3 cells transformed with the oncogenic fusion protein bcr-abl, Abl-negative U937 cells, or Bcr-abl positive LAMA-84 cells. The parent untransformed BaF3 cells and Abl-negative U937 cells are used as controls. Cells were seeded in U-bottomed 96-well plates at 10 000 cells/well in a volume of 100 μL in supplemented medium. In the case of the parent untransformed BaF3 cells, the medium was supplemented with IL-3. Serial dilutions of inhibitors were added to the appropriate wells and volumes adjusted to 200 μL. Controls were treated with the equivalent volume of vehicle, DMSO, alone. Plates were incubated at 37° C. for 72 h. ^3[H]-thymidine (1 μCi/well) was added for the last 16 h of incubation. Cells were harvested on to paper filters and ^3[H]-thymidine incorporation was measured using a β scintillation counter (1430 MicroBeta, Wallac, Turku, Finland). The 50% inhibitory concentration (IC50) was defined as the concentration of inhibitor, expressed in micromolar, that gave a 50% decrease in ^3H-thymidine uptake compared with controls.

Recombinant ALK kinase = biological target: T2, Recombinant ALK kinase (Homo sapiens, UniProt Q9UM73); assay: ALK kinase inhibitory activity, ELISA-based in vitro kinase assay; format: biochemical; details: for ALK IC50, 2nd / subsequent determination: 2nd or 'then'
T2 construct: made in house; host or cells: Sf9 insect cells (baculovirus)
T2 sequence (Q9UM73 19-1620): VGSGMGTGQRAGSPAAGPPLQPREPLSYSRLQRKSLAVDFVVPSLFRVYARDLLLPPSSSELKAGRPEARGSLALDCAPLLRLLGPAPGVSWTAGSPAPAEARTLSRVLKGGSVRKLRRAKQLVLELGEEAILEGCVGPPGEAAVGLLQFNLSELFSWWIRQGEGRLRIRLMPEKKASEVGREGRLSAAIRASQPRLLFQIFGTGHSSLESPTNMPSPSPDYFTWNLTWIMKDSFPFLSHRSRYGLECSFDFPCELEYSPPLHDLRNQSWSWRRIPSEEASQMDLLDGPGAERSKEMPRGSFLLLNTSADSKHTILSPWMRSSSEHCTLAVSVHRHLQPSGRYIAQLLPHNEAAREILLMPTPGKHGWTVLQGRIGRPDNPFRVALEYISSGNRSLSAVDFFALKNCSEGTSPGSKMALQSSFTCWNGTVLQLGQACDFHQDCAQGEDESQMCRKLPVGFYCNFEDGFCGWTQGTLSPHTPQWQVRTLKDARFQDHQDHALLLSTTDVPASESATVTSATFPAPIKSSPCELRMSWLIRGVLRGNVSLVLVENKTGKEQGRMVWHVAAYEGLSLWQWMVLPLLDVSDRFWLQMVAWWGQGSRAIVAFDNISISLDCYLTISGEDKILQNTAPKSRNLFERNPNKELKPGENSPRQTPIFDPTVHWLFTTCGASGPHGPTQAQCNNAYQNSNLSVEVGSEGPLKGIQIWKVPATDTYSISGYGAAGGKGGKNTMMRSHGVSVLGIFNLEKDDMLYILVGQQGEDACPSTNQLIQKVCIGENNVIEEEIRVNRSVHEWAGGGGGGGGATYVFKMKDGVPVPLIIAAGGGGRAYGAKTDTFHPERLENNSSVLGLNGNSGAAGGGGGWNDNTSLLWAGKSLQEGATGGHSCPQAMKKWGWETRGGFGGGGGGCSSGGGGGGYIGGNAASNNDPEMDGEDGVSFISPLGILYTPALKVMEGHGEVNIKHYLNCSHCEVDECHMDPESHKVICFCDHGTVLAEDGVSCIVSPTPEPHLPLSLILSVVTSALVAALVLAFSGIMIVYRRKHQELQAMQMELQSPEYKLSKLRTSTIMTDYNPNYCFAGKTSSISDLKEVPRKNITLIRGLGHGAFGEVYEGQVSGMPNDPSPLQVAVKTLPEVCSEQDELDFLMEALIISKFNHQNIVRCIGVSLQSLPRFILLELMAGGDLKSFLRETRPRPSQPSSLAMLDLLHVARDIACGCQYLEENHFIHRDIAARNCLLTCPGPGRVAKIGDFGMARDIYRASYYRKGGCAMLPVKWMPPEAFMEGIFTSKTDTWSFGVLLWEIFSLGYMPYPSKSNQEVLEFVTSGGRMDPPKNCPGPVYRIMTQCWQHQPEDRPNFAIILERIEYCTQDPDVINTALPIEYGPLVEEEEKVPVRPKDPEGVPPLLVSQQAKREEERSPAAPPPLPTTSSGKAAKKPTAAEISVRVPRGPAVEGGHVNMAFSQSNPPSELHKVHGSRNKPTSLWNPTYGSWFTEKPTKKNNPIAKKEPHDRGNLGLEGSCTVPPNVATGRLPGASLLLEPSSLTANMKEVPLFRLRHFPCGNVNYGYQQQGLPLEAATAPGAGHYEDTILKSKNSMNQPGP
How it was run: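 Sf9-expressed, purified recombinant ALK phosphorylated a plate-coated peptide substrate with 0.3 mM ATP, Mn2+/Mg2+, pH 7.5, 15 min at 30° C, after 10 min inhibitor preincubation. Phosphotyrosine was detected by anti-pTyr ELISA (TMB, A450); IC50 in μM is the concentration giving 50% inhibition relative to control.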

[4] = biological target: T3, Recombinant Abl T315I protein (Homo sapiens, UniProt P00519, T315I); assay: Abl T315I mutant kinase inhibitory activity, ELISA-based in vitro kinase assay; format: biochemical; details: purified Abl T315I, 0.3 mM ATP
T3 construct: made in house; host or cells: Sf9 cells (baculovirus)
How it was run: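 His-tagged human Abl T315I from Sf9 cells, preincubated 10 min at room temperature with inhibitor, then reacted on peptide-coated plates with 0.3 mM ATP, 1 mM MnCl2, 5 mM MgCl2 in 50 mM Tris pH 7.5. Phosphotyrosine detected by anti-pTyr/HRP ELISA at 450 nm; IC50 as 50% inhibition vs control.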

Recombinant Ret protein = biological target: T4, Recombinant Ret protein (Homo sapiens, UniProt P07949); assay: RET kinase inhibitory activity, ELISA-based in vitro kinase assay; format: biochemical; details: purified Ret, 0.3 mM ATP
T4 construct: made in house; host or cells: Sf9 cells (baculovirus)
T4 sequence (P07949 29-1114): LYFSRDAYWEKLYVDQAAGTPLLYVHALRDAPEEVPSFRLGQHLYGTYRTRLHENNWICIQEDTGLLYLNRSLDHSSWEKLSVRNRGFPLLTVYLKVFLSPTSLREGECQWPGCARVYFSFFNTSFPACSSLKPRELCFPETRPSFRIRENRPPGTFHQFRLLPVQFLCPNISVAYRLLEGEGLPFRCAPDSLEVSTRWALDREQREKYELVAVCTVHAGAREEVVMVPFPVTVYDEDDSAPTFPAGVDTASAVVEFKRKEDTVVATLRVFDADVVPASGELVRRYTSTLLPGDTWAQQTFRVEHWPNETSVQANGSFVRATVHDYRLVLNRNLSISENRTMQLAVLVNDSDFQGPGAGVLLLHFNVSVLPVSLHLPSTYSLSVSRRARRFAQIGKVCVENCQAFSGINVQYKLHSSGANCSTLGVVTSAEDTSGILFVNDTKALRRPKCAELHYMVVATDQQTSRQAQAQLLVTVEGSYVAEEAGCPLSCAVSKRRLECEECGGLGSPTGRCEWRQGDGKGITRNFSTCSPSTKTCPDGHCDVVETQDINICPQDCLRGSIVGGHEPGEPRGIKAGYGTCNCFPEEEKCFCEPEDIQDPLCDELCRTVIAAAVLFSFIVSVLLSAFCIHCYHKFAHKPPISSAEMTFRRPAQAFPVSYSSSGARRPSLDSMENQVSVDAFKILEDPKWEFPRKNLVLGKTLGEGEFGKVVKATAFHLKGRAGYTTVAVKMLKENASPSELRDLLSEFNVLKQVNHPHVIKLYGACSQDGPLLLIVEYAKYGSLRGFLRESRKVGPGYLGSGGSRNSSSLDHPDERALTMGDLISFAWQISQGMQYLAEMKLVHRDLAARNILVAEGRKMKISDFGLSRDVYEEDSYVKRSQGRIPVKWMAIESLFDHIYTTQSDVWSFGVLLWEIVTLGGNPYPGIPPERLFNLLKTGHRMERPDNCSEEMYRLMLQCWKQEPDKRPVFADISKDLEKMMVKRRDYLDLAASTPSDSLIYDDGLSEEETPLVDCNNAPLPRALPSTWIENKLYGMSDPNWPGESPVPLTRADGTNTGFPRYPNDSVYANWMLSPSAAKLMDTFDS
Procedure: Recombinant ALK kinase was expressed in Sf9 insect cells using the pBlueBacHis2C baculovirus vector system and purified using an anion exchange Fast Flow Q-sepharose column (Amersham-Pharmacia Biotech) followed by HiTrap™-nickel affinity column (Amersham-Pharmacia Biotech). Purified ALK protein was used to screen inhibitors in the ELISA-based kinase assay. A Nunc Immuno 96 well plate was incubated overnight at 37° C. with coating solution (125 μL/well) containing ALK peptide substrate ([…]) (SEQ ID NO: 1) at various concentrations in PBS. Wells were then washed with 200 μL of wash buffer (PBS-Tween 0.05%) and left to dry for at least 2 h at 37° C. The kinase reaction was performed in the presence of 50 mM Tris pH 7.5, 5 mM MnCl2, 5 mM MgCl2, 0.3 mM ATP and purified rALK in a total volume of 100 μL/well at 30° C. for 15 min. For inhibitor testing the reaction mix was preincubated with the inhibitor or solvent control for 10 min at room temperature before transferring to the ELISA plate. After the reaction wells were washed 5 times with 200 μL of wash buffer. Phosphorylated peptide was detected using 100 μL/well of a mouse monoclonal anti-phosphotyrosine antibody (clone 4G10 Upstate Biotech Ltd) diluted 1:2000 in PBS+4% BSA. After 30 min incubation at room temperature the antibody was removed and wells were washed as described above. 100 μL of a secondary antibody (anti-mouse IgG, Horseradish Peroxidase linked whole antibody, Amersham Pharmacia Biotech) diluted 1:1000 in PBS+4% BSA was added to each well and the plate was incubated again for 30 min at room temperature before washing as above. The plate was developed using 100 μL/well TMB Substrate Solution (Endogen) and the reaction was stopped by adding an equiv.ual volume of H2SO4 0.36 M. Finally, the absorbance was read at 450 nm using an Ultrospec® 300 spectrophotometer (Amersham-Pharmacia Biotech). The concentration of the test solution showing 50% inhibition as compared with the control was expressed as IC50 (μM).
38. RET Kinase Inhibitory Activity
Method: ELISA-Based In Vitro Kinase Assay
Recombinant Ret protein was expressed in Sf9 cells using the pBlueBacHis2C baculovirus expression vector. Ret was purified using an anion exchange Fast Flow Q-sepharose column (Amersham-Pharmacia Biotech) followed by HiTrap™-nickel affinity column (Amersham-Pharmacia Biotech). Purified Ret was used in the ELISA-based kinase assay to screen inhibitors as described above. The kinase reaction was performed in the presence of 50 mM Tris pH 7.5, 1 mM MnCl2, 5 mM MgCl2, 0.3 mM ATP, peptide substrate ([…]) (SEQ ID NO: 1) and purified Ret. The concentration of the test solution showing 50% inhibition as compared with the control was expressed as IC50 (μM).

[5] = test system: NPM/ALK positive SUDHL-1 cells; assay: Tritiated thymidine uptake cell proliferation assay, SUDHL-1; format: cell-based; details: 3[H]-thymidine uptake, 72 h
Procedure: Inhibition of the proliferation of NPM/ALK positive cells
as §1
as §2, with “NPM/ALK, NPM/ALK positive SUDHL-1 cells, ALK-negative” for “bcr-abl, Abl-negative”, “NPM/ALK” for “or Bcr-abl”, “KARPAS-299” for “LAMA-84”, “Alk-negative” for “Abl-negative”, “^3[H]-thymidine” for “^3H-thymidine”

ALK-negative U937 cells = assay: Tritiated thymidine uptake cell proliferation assay, U937 (control); format: cell-based; details: Homo sapiens, U-937; 3[H]-thymidine uptake, 72 h
Procedure: as §1
The following procedure was used with parent untransformed BaF3 cells, BaF3 cells transformed with the oncogenic fusion protein NPM/ALK, NPM/ALK positive SUDHL-1 cells, ALK-negative U937 cells, NPM/ALK positive KARPAS-299 cells. The parent untransformed BaF3 cells and Alk-negative U937 cells are used as controls. Cells were seeded in U-bottomed 96-well plates at 10 000 cells/well in a volume of 100 μL in supplemented medium. In the case of the parent untransformed BaF3 cells, the medium was supplemented with IL-3. Serial dilutions of inhibitors were added to the appropriate wells and volumes adjusted to 200 μL. Controls were treated with the equivalent volume of vehicle, DMSO, alone. Plates were incubated at 37° C. for 72 h. ^3[H]-thymidine (1 μCi/well) was added for the last 16 h of incubation. Cells were harvested on to paper filters and ^3[H]-thymidine incorporation was measured using a β scintillation counter (1430 MicroBeta, Wallac, Turku, Finland). The 50% inhibitory concentration (IC50) was defined as the concentration of inhibitor, expressed in micromolar, that gave a 50% decrease in ^3[H]-thymidine uptake compared with controls. […]
as §2, with “RET-PTC2,” for “bcr-abl, Abl-negative U937 cells,”, “RET-negative 11937” for “Bcr-abl positive LAMA-84”, “RET-negative” for “Abl-negative”, “^3[H]-thymidine” for “^3H-thymidine”

[6] = purified rALK, 0.3 mM ATP, read-out: ALK IC50
[7] = repeated determinations, 1st, read-out: ALK IC50, 1st determination

Compound	IC50 [1]	GI50 [2]	GI50 [3]	IC50 (Recombinant ALK kinase; [6])	IC50 [4]	IC50 (Recombinant Ret protein)	IC50 [5]	IC50 (ALK-negative U937 cells)	IC50 (Recombinant ALK kinase; [7])	ALK IC50, 2nd / subsequent determination (Recombinant ALK kinase; repeated determinations)
CC(=O)c1ccc2[nH]c3ncc(Cl)cc3c2c1 [R253, 6-acetyl-3-chloro-9H-pyrido[2,3-b]indole]	> 20 µM	> 20 µM	> 20 µM	–	–	–	–	–	–	–
CN(C)CCSCC(=O)c1ccc2[nH]c3ncccc3c2c1 [R263]	> 25 µM	> 25 µM	> 25 µM	> 100 µM	> 100 µM	> 100 µM	13 µM	–	–	–
O=C(CSc1ccccn1)c1ccc2[nH]c3ncccc3c2c1 [R264]	19 µM	13 µM	23 µM	13 ± 0.58 µM	49 ± 1.1 µM	24 ± 6.1 µM	24 µM	–	–	–
O=C(NCCc1ccc2[nH]c3ncc(Cl)cc3c2c1)c1ccccc1 [R265, N-(2-(3-chloro-9H-pyrido[2,3-b]indol-6-yl)ethyl)benzamide]	> 25 µM	> 25 µM	> 25 µM	40 ± 1.9 µM	54 ± 43 µM	26 ± 4.7 µM	> 25 µM	–	–	–
O=[N+]([O-])/C=C/c1ccc2[nH]c3ncc(Cl)cc3c2c1 [R266, 3-chloro-6-(2′-nitrovinyl)-9H-pyrido[2,3-b]indole]	3.4 µM	3.4 µM	2 µM	3.3 ± 0.4 µM	9.8 ± 0.67 µM	4.6 ± 0.39 µM	0.81 µM	–	–	–
COc1ccc(-c2ccc3[nH]c4ncccc4c3c2)cc1 [R268]	> 25 µM	> 25 µM	> 25 µM	–	3.6 ± 0.19 µM	3.3 ± 1.5 µM	0.6 µM	–	–	–
COc1ccc(-c2ccc3[nH]c4ncc(/C=C/c5ccccc5)cc4c3c2)cc1 [R315, 6-(4-methoxyphenyl)-3-(2′-phenylethenyl)-9H-pyrido[2,3-b]indole]	25 ± 10 µM	3.9 ± 1.1 µM	–	1.1 ± 0.3 µM	6.5 µM	–	2 µM	21 µM	–	–
Clc1cnc2[nH]c3ccc(CCc4ccccc4)cc3c2c1 [R351, 3-chloro-6-(2′-phenylethyl)-9H-pyrido[2,3-b]indole]	> 100 µM	> 100 µM	–	–	–	–	7.6 µM	23 µM	66 µM	inactive
COc1cccc(Nc2cnc3[nH]c4ccc(CCc5ccccc5)cc4c3c2)c1 [R352, N-(3-methoxyphenyl)-6-(2′-phenylethyl)-9H-pyrido[2,3-b]indol-3-amine]	5.3 µM	5.2 µM	–	–	–	–	8.6 µM	13 µM	19 µM	inactive
c1ccc(CCc2ccc3[nH]c4ncc(-c5ccc6c(c5)OCO6)cc4c3c2)cc1 [R354, 3-(benzo[d][1,3]dioxol-5-yl)-6-(2′-phenylethyl)-9H-pyrido[2,3-b]indole]	27 µM	22 µM	–	13 µM	–	–	25 µM	27 µM	–	–
